Assay results as given in patent publication US5214056A, “1,3,2-dioxathiolane oxide derivative” (Japan Tobacco Inc., priority 1989, dated 1993).

Legend:
[1] = molecular target: T1, Purified calpain (CANP) sampled from a rat brain (Rattus norvegicus, UniProt Q07009); experiment: CANP inhibition activity in in vitro system; type: biochemical; details: N,N-dimethylcasein substrate, 30° C. for 20 minutes, pH 7.4, read-out: 50% inhibition concentration IC50
T1 construct: sampled from a rat brain; from tissue; host or cells: rat brain
T1 sequence (Q07009 1-700): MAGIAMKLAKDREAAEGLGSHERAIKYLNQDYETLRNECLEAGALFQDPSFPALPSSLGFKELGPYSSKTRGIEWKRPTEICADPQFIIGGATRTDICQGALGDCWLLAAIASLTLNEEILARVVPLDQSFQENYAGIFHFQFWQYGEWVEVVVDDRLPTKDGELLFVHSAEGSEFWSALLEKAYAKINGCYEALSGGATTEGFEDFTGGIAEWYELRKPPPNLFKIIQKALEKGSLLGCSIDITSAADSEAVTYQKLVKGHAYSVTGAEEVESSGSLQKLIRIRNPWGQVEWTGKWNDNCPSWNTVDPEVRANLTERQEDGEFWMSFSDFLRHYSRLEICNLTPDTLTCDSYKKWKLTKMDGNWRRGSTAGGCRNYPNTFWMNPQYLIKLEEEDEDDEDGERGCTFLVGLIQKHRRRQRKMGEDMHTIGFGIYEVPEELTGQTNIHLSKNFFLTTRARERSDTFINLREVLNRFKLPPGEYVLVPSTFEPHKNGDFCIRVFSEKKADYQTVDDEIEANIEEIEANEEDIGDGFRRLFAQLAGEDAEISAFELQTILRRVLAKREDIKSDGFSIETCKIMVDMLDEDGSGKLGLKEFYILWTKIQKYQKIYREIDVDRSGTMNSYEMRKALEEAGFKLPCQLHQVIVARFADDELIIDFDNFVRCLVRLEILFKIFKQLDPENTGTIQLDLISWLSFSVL
T1 sequence (Q64537 1-270 partner): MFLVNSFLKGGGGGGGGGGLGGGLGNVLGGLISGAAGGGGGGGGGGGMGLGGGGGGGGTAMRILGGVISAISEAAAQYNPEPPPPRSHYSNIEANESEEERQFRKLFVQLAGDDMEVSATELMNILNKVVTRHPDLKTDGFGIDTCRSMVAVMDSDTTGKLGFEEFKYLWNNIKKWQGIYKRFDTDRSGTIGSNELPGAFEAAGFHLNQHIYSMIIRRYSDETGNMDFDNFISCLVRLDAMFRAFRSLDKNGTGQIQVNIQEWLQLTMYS
Description: A solution mixture consisting of the following com-ponents was prepared.
A 167-mM Tris hydrochloric acid buffer solution (pH=7.4) (containing 15-mM mercaptoethanol); 40 μl
A solution obtained by dissolving the compound [I] of the present invention in the same Tris hydrochloric acid buffer solution as described above; 40 μl
Purified calpain [obtained by a method described in J. Biol. Chem., 239, 149 (1964)] sampled from a rat brain and dissolved in a 50-mM sodium acetic acid buffer solution (pH=6.0; containing 1-mM EDTA and 5-mM mercaptoethanol) 11 units/ml; 200 μl
An N,N-dimethylcasein solution (pH=7.0)
40 μl of a 167-mM Tris hydrochloric acid buffer solution (pH=7.4) containing 50-mM CaCl2 were added to the above solution mixture, and the resultant solution was incubated at 30° C. for 20 minutes. After the incubation, 320 μl of 10% (W/V) trichloroacetic acid were added to stop the reaction, and the resultant solution was left to stand in an ice bath for one hour. Thereafter, the solution was subjected to centrifugal separation (16,100×g, five minutes), and 600 μl of the supernatant were sampled to measure absorbance (a1) at 280 nm.
In another step, absorbance (a2) was obtained by performing an experiment and measurement following the same procedures as described above except that a 167-mM Tris hydrochloric acid buffer solution (pH=7.4; containing 15-mM mercaptoethanol) was used in place of the 167-mM Tris hydrochloric acid buffer solution containing the compound of the present invention. In addition, absorbance (a3) was obtained by performing an experiment and measurement following the same procedures as described above except that a 167-mM Tris hydrochloric acid buffer solution (pH=7.4; containing 1-mM EDTA) was used in place of the 167-mM tris buffer solution (pH=7.4) containing 50-mM CaCl2.
An inhibition ratio was calculated from the above absorbance values (a1), (a2), and (a3) in accordance with the following equation: [formula]
In addition, a concentration (IC50) required for 50% inhibition was calculated by using a semilogarithmical graph.

cathepsin B = molecular target: T2, cathepsin B (Bos taurus, UniProt P07688); experiment: Cathepsin B inhibition activity in in-vitro system; type: biochemical; details: cathepsin B (Sigma), benzoyl-(phenylalanyl-alginyl)-4-methyl-coumarinamide substrate, pH 6.0, 30° C. for 20 minutes; read-out: 50% inhibition concentration IC50
T2 construct: purchased Sigma Co
Description: In this experiment, a 100-mM sodium phosphate buffer solution (pH=6.0; containing 1.33-mM EDTA Na2) was used as the buffer solutions for solution preparation.
A solution mixture consisting of the following components was prepared.
The above buffer solution; 850 μl
A 20-μM solution obtained by dissolving the compound of the present invention in the above buffer solution; 50 μl
A solution obtained by dissolving cathepsin B (available from Sigma Co.) in the above buffer solution to have a concentration of 0.5 mg/ml; 50 μl
50 μl of a 200-μM solution obtained by dissolving benzoyl-(phenylalanyl-alginyl)-4-methyl-coumarinamide in the above buffer solution were added to the above solution mixture, and the resultant solution was incubated at 30° C. for 20 minutes.
After the incubation, the reaction solution mixture was cooled in an ice bath to stop the reaction. After 20 minutes elapsed, the fluorescence intensity (b1) at an excitation wavelength of 370 nm and an emission wavelength of 440 nm was measured. At the same time, an experiment was performed using the above buffer solution in place of the solution of cathepsin B in the above system, and fluorescence intensity (b2) was measured following the same procedures as described above. In addition, an experiment was performed using the above buffer solution in place of the buffer solution of the compound of the present invention, and fluorescence intensity (b3) was measured following the same procedures as described above.
An inhibition ratio was calculated in accordance with the following equation: [formula] and a concentration (IC50) required for 50% inhibition was calculated by using a semilogarithmical graph.

CCOC(=O)[C@H]1OS(=O)(=O)O[C@@H]1C(=O)N[C@@H](CC(C)C)C(=O)NCCC(C)C [Example 4, Ethyl (4S,5S)-5-[(S)-3-methyl-1-(3-methylbutylcarbamoyl)butylcarbamoyl]-1,3,2-dioxathiolane-4-carboxylate-2,2-dioxide]
IC50 [1]: 15000 nM
IC50 (cathepsin B): 25 nM

CC(C)CCNC(=O)[C@H](CC(C)C)NC(=O)[C@H]1OS(=O)(=O)O[C@@H]1C(=O)OCc1ccccc1 [Example 11, Benzyl (4S,5S)-5-[(S)-3-methyl-1-(3-methylbutylcarbamoyl)butylcarbamoyl]-1,3,2-dioxathiolane-4-carboxylate-2,2-dioxide]
IC50 [1]: 6000 nM
IC50 (cathepsin B): 9 nM

CC(C)CCNC(=O)[C@H](CC(C)C)NC(=O)[C@H]1OS(=O)(=O)O[C@@H]1C(=O)O [Example 12, (4S,5S)-5[(S)-3-methyl-1-(3-methylbutylcarbamoyl)butylcarbamoyl]-1,3,2-dioxathiolane-4-carboxy-2,2-dioxide]
IC50 [1]: 300 nM
IC50 (cathepsin B): 0.7 nM

CCCCN(CCCC)C(=O)[C@H](CC(C)C)NC(=O)[C@H]1OS(=O)(=O)O[C@@H]1C(=O)OCC [Example 14]
IC50 (cathepsin B): 15 nM

CCOC(=O)[C@H]1OS(=O)(=O)O[C@@H]1C(=O)N[C@@H](CC(C)C)C(=O)NCc1ccccc1 [Example 16, Ethyl (4S,5S)-5-[(S)-1-benzylcarbamoyl-3-methylbutylcarbamoyl]-1,3,2-dioxathiolane-4-carboxylate-2,2-dioxide]
IC50 (cathepsin B): 3 nM

CC(C)CC(NC(=O)C1OC1C(=O)O)C(=O)NCCCCNC(=N)N (stereo not shown) [Example E-64, E-64, reference compound]
IC50 [1]: 7000 nM
IC50 (cathepsin B): 35 nM
